From patent publication US20230242499A1, “COMPOUND OR SALT THEREOF, COMPOSITION, CHEMILU[…], METHOD FOR MEASURING CHEMILU[…], REAGENT, REAGENT KIT, AND METHOD FOR ASSAYING ANALYTE” (SYSMEX CORPORATION, priority 2022, published 2023)

Columns and labels:
alkaline phosphatase = test: Test Example 2: chemiluminescence intensity versus amount of alkaline phosphatase, limit of detection; format: biochemical; settings: 42° C., 5 minutes incubation
Method: A solution of 1,2-dioxetane derivative (Examples 1 to 4) in dimethyl sulfoxide was added to 155 μL of the reaction liquid, and the mixture was kept at 42° C. for one hour. Twenty μL of a solution containing alkaline phosphatase was added, the mixture was incubated at 42° C. for 5 minutes, and then the chemiluminescence intensity was measured. The reaction liquid used herein was a 2: 1 mixture of a buffer solution (pH 9.6) that contains magnesium chloride and Sapphire-II™ Enhancer (from Thermo Fischer Scientific Inc.), and HISCL R4 reagent (from Sysmex Corporation). In Example 3, two types of sample were prepared, a sample (S(+)) with Sapphire-II™ Enhancer added thereto, and a sample […] without such additive.

[1] = Test Example 3: maximum emission wavelength by spectrofluorometer; format: physicochemical; settings: after several hours under the conditions of Test Example 1; spectrofluorometer F-7000
Method: After a lapse of several hours under the conditions of Test Example 1, the samples were measured with use of a spectrofluorometer F-7000 (from Hitachi High-Tech Science Corporation), to find maximum emission wavelength.

[2] = buffer pH 9.6 with magnesium chloride and Sapphire-II Enhancer added (S (+)), HISCL R4 reagent

| SMILES | LOD (zmol) (alkaline phosphatase; [2]) | Maximum emission wavelength (nm) [1] [nm] | LOD (zmol) (alkaline phosphatase; Sapphire-II Enhancer not added (S (−))) |
| --- | --- | --- | --- |
| COC1(c2ccc(C#Cc3ccc(C(=O)O)cc3)c(OP(=O)(O)O)c2)OOC12C1CC3CC2CC(Cl)(C3)C1 (stereo not drawn) [Example 1] | 10 | 498 | – |
| C#Cc1ccc(C2(OC)OOC23C2CC4CC3CC(Cl)(C4)C2)cc1OP(=O)(O)O (stereo not drawn) [Example 2] | 4 | 468 | – |
| COC1(c2ccc(C#CC(=O)O)c(OP(=O)(O)O)c2)OOC12C1CC3CC2CC(Cl)(C3)C1 (stereo not drawn) [Example 3] | 7 | 475 | 1 |
| COC1(c2ccc(-c3ccc(C(=O)O)cc3)c(OP(=O)(O)O)c2)OOC12C1CC3CC2CC(Cl)(C3)C1 (stereo not drawn) [Example 4] | 100 | 493 | – |
